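How tested: cells in 96-well plates exposed to compound for 48 hours at five concentrations. GI50 marks 50% less growth.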 The source made the active and inactive calls. No stated cut-off is given here; in the data, active = GI50 up to about 1.1 µM and inactive = higher.
Assays:
Test in all cases: NCI anticancer screen, dose series, 48 h
NCI-H226 = test system: NCI-H226
COLO 205 = test system: COLO 205
SF-268 = test system: SF-268
EKVX = test system: EKVX
OVCAR-5 = test system: OVCAR-5
HL-60 = test system: HL-60
IGROV-1 = test system: IGROV-1
M14 = test system: M14
MOLT-4 = test system: MOLT-4
KM12 = test system: KM12
SNB-75 = test system: SNB-75
Malme-3M = test system: Malme-3M
A498 = test system: A498
HCT-15 = test system: HCT-15
SNB-19 = test system: SNB-19
SR = test system: SR
CAKI-1 = test system: CAKI-1
SN12C = test system: SN12C

Measured: GI50

C/C(CC(=O)Nc1cccc(Cl)c1C)=N\NC(=O)c1ccncc1
inactive: NCI-H226 > 100 µM | COLO 205 > 100 µM | SF-268 > 100 µM | EKVX > 100 µM | OVCAR-5 > 100 µM | HL-60 > 100 µM | IGROV-1 > 100 µM | M14 > 100 µM | MOLT-4 > 100 µM | KM12 > 100 µM | SNB-75 > 100 µM | Malme-3M > 100 µM

O=[N+]([O-])c1ccc(-n2nnc(C3=NCCCN3)c2-c2ccc(Cl)cc2)cc1
> 100 µM: HCT-15
inactive: NCI-H226 > 100 µM | COLO 205 30.5 µM | SF-268 > 100 µM | EKVX > 100 µM | OVCAR-5 > 100 µM | HL-60 46.3 µM | A498 > 100 µM | IGROV-1 > 100 µM | M14 54 µM | MOLT-4 79.3 µM | SNB-19 > 100 µM | SR 29 µM | CAKI-1 > 100 µM | KM12 > 100 µM | SN12C > 100 µM | SNB-75 > 100 µM | Malme-3M > 100 µM

C#CC1(O)c2ccccc2C(=O)c2ccccc21
inactive: NCI-H226 > 100 µM | COLO 205 > 100 µM | SF-268 > 100 µM | EKVX > 100 µM | OVCAR-5 > 100 µM | HL-60 > 100 µM | A498 10.9 µM | IGROV-1 11.8 µM | MOLT-4 > 100 µM | SNB-19 > 100 µM | SR > 100 µM | CAKI-1 > 100 µM | KM12 > 100 µM | SN12C > 100 µM | Malme-3M > 100 µM

OC12CCCCCC1(N1CCOCC1)c1ccccc12 (centres undefined)
> 100 µM: HCT-15
inactive: NCI-H226 > 100 µM | COLO 205 > 100 µM | SF-268 > 100 µM | OVCAR-5 > 100 µM | HL-60 > 100 µM | A498 > 100 µM | IGROV-1 > 100 µM | M14 > 100 µM | MOLT-4 > 100 µM | SNB-19 > 100 µM | CAKI-1 > 100 µM | KM12 > 100 µM | SN12C > 100 µM | SNB-75 > 100 µM | Malme-3M > 100 µM

O=C1O[C@@H](c2ccccc2)C[C@H]1CN1CCOCC1
> 100 µM: HCT-15
inactive: NCI-H226 43.6 µM | COLO 205 97.5 µM | SF-268 > 100 µM | EKVX > 100 µM | OVCAR-5 > 100 µM | HL-60 24.6 µM | A498 > 100 µM | IGROV-1 > 100 µM | M14 > 100 µM | MOLT-4 33 µM | CAKI-1 20.4 µM | KM12 89.5 µM | SN12C > 100 µM | SNB-75 51.9 µM | Malme-3M > 100 µM

CCOC(=O)CC1=N/C(=N/C(=N)N[N+](=O)[O-])SC1
> 100 µM: HCT-15
inactive: NCI-H226 > 100 µM | COLO 205 > 100 µM | SF-268 > 100 µM | EKVX > 100 µM | OVCAR-5 > 100 µM | HL-60 > 100 µM | A498 > 100 µM | IGROV-1 > 100 µM | M14 > 100 µM | SNB-19 > 100 µM | CAKI-1 > 100 µM | KM12 > 100 µM | SN12C > 100 µM | SNB-75 > 100 µM | Malme-3M > 100 µM

CC1(Br)CC2OC3(Br)C=CC(C)(O)C2(CC1=O)C3(C)C (centres undefined)
inactive: NCI-H226 > 100 µM | COLO 205 > 100 µM | SF-268 > 100 µM | EKVX > 100 µM | OVCAR-5 > 100 µM | A498 > 100 µM | IGROV-1 > 100 µM | M14 > 100 µM | MOLT-4 > 94 µM | SNB-19 > 100 µM | SR 82.4 µM | CAKI-1 > 100 µM | KM12 > 100 µM | SN12C > 100 µM | SNB-75 64.6 µM | Malme-3M > 100 µM
> 100 µM: HCT-15

Cc1ccc(C(=O)C(C2=Nc3nnc(N)n3C2=O)C2=Nc3nnc(N)n3C2=O)cc1
> 100 µM: HCT-15
inactive: NCI-H226 > 100 µM | COLO 205 > 100 µM | SF-268 > 100 µM | EKVX > 100 µM | OVCAR-5 > 100 µM | HL-60 > 100 µM | A498 > 100 µM | IGROV-1 > 100 µM | M14 > 100 µM | MOLT-4 > 100 µM | SNB-19 > 100 µM | CAKI-1 > 100 µM | KM12 > 100 µM | SN12C > 100 µM | SNB-75 > 100 µM | Malme-3M > 100 µM

CC(C)C(=O)Nc1nc2c(ncn2C2OC(CO)C(O)C2O)c(=O)[nH]1 (centres undefined)
> 100 µM: HCT-15
inactive: NCI-H226 > 100 µM | COLO 205 > 100 µM | SF-268 > 100 µM | EKVX > 100 µM | OVCAR-5 > 100 µM | HL-60 > 100 µM | A498 > 100 µM | IGROV-1 > 100 µM | M14 > 100 µM | MOLT-4 > 100 µM | SR > 100 µM | CAKI-1 > 100 µM | KM12 > 100 µM | SN12C > 100 µM | SNB-75 > 100 µM | Malme-3M > 100 µM
